This note sets out measurements from PubChem BioAssay AID651833 (Broad Institute, 2012).

Several values for one entry are separate records, joined by “and”; a condition that tells them apart may be missing. Equal values may be shown once. Activity calls are given as the source filed them.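 Rule for the calls: active = fitted curve reaching 40% activation at or below the sample's highest valid tested dose; inconclusive = flat fit between 30% and 70%, or poor fit; inactive = the rest, including opposite-direction activity.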

One assay deals with Kelch-like ECH-associated protein 1 (Homo sapiens) + Nuclear factor erythroid 2-related factor 2 (Homo sapiens) (UniProt Q14145+Q16236). Kind of assay: cellular Nrf2 nuclear translocation induction – PathHunter, U2OS cells, dry powder, orthogonal assay for Keap1-Nrf2 interaction inhibitor project, dose response (AID 651833). To be noted: beta-gal luminescence, 3 h.
Sequence of Kelch-like ECH-associated protein 1 (Homo sapiens) + Nuclear factor erythroid 2-related factor 2 (Homo sapiens) (Q14145 whole entry, looked up): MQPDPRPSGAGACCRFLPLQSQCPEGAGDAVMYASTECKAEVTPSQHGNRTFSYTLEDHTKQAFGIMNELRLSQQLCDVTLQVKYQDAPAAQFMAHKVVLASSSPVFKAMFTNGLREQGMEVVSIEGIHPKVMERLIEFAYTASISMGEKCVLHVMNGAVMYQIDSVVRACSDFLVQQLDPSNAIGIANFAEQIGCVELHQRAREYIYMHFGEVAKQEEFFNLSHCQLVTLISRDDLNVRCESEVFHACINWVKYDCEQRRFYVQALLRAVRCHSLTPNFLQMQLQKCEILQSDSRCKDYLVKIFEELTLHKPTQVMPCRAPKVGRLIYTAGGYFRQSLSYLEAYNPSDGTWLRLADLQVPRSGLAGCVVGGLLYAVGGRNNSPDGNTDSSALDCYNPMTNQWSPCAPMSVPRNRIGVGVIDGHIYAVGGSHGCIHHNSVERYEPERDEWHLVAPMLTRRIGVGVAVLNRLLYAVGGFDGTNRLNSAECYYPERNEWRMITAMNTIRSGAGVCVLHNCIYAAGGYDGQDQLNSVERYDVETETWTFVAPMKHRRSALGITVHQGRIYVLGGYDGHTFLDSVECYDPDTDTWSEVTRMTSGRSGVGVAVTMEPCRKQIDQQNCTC
Sequence of Kelch-like ECH-associated protein 1 (Homo sapiens) + Nuclear factor erythroid 2-related factor 2 (Homo sapiens) (Q16236 whole entry, looked up): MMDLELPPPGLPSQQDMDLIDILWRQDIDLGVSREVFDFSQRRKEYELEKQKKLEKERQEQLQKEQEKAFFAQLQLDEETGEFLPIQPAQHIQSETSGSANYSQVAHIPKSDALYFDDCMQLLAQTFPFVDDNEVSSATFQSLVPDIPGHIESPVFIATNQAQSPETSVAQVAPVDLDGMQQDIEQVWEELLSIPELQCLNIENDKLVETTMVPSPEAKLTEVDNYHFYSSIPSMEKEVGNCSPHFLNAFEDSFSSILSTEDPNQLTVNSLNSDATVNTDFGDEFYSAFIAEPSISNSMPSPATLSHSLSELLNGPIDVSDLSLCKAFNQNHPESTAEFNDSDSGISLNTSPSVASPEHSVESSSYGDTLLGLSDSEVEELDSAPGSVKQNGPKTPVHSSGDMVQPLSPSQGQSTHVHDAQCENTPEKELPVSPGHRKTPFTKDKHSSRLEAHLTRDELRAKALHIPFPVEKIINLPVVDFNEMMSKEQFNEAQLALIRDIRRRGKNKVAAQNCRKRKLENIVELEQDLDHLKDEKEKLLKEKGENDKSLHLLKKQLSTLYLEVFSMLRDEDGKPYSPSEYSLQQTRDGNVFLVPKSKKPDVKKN
As to `Cc1cc(C)c(S(=O)(=O)Nc2cc(C(C(=O)OC(C)C)C(=O)C(F)(F)F)c(O)c3ccccc23)c(C)c1` (configuration not stated), the AC40 was 1.1 µM.

For the compound `Cc1ccccc1S(=O)(=O)Nc1cc(C(C(=O)OC(C)C)C(=O)C(F)(F)F)c(O)c2ccccc12` (configuration not stated), the AC40 is 6.97 µM.

With `O=C(O)C1CCCCC1C(=O)N1CCc2ccccc2C1CN1Cc2ccccc2C1=O` (configuration not stated), the AC40 is > 38 µM (inactive).

Turning to `COC(=O)C(C(=O)OC)c1cc(NS(=O)(=O)c2c(C)cc(C)cc2C)c2ccccc2c1O`, the AC40 is 4.21 µM. As to `O=C(NC[C@@H]1c2ccccc2CCN1C(=O)[C@@H]1CCCC[C@@H]1C(=O)O)OCC1c2ccccc2-c2ccccc21`, the AC40 is > 38 µM (inactive). As to `O=C(NC[C@@H]1c2ccccc2CCN1C(=O)[C@@H]1CCCC[C@@H]1C(=O)O)c1ccccc1`, the AC40 is > 38 µM (inactive). Still for that read-out and setting: to `O=C(NC[C@@H]1c2ccccc2CCN1C(=O)[C@@H]1CCCC[C@@H]1C(=O)O)c1ccc(CCl)cc1` belongs > 38 µM (inactive); to `O=C(Oc1cc(CN2C(=O)c3ccccc3C2=O)c2ccccc2[n+]1[O-])c1cccc(Cl)c1`, 30 µM. Still for that read-out and setting: to `Cc1ccc(S(=O)(=O)NNc2nc(N3CC(O)CC3C(=O)O)nc3ccccc23)cc1` (configuration not stated) belongs > 38 µM (inactive).

For `Cc1ccc(S(=O)(=O)NNc2nc(C(C(=O)OC(C)C)C(=O)C(F)(F)F)nc3ccccc23)cc1` (configuration not stated), the AC40 was 18.5 µM.

Take `Cc1ccc(S(=O)(=O)Nc2cc(C(C(=O)OC(C)C)C(=O)C(F)(F)F)c(O)c3ccccc23)cc1` (configuration not stated): the AC40 is 12.1 µM. Same read-out and setting: as for `CC(C)OC(=O)C(C(=O)C(F)(F)F)c1cc(NS(=O)(=O)c2ccccc2)c2ccccc2c1O` (configuration not stated), the figure is 20 µM; as for `Cc1ccc(S(=O)(=O)NC2=CC(=N[C@@H](C)C(=O)OC(C)(C)C)C(=O)c3ccccc32)c(C)c1`, > 38 µM (inactive). On to `O=C(O)Cc1ccccc1C(=O)N1CCc2ccccc2[C@H]1CN1C(=O)c2ccccc2C1=O`, for which the AC40 is > 38 µM (inactive). Same read-out and setting: to `Cc1ccc(S(=O)(=O)Nc2cc(C(C(=O)OC(C)C)C(=O)C(F)(F)F)c(O)c3ccccc23)c(C)c1` (configuration not stated) belongs 5.12 µM; to `CC(=O)Nc1cc(NS(=O)(=O)c2c(C)cc(C)cc2C)c2ccccc2c1O`, 27.2 µM. The same measure, in the same setting: to `O=C(O)[C@H]1C2C=CC(C2)[C@H]1C(=O)N1CCc2ccccc2C1CN1C(=O)c2ccccc2C1=O` (some centres not stated) belongs > 38 µM (inactive); to `Cc1cc(C)c(S(=O)(=O)Nc2nc(C(C(=O)OC(C)C)C(=O)C(F)(F)F)nc3ccccc23)c(C)c1` (configuration not stated), > 38 µM (inactive).

Staying with this assay, now noted: beta-gal luminescence, 3 h, at 10 µM (top of the series).
Consider `O=C1c2ccccc2C(=O)N1CC1c2ccccc2CCN1C(=O)Cc1ccccc1` (configuration not stated), for which the activation was -2.75% (inactive).

The assay is the same for the next values; noted with them: beta-gal luminescence, 3 h, at 38 µM (top of the series).
With `O=C(NCCCN1CCOCC1)c1ccccc1C(=O)NC[C@@H]1c2ccccc2CCN1C(=O)C1CCCCC1C(=O)O` (some centres not stated), the activation was 4.62% (inactive).

As for `O=C(O)[C@@H]1CCCN1C(=O)N1CCc2ccccc2[C@H]1CN1C(=O)c2ccccc2C1=O`, the activation was 5.41% (inactive). Still for that read-out and setting: as for `O=C(NC[C@@H]1c2ccccc2CCN1C(=O)[C@@H]1CCCC[C@@H]1C(=O)O)c1ccccc1CO`, the figure is 2.2% (inactive). The same measure, in the same setting: to `Cc1cc(C)c(S(=O)(=O)Nc2ncnc3ccccc23)c(C)c1` belongs 2.9% (inactive). Still for that read-out and setting: to `O=C(O)/C=C\C(=O)N1CCc2ccccc2C1CN1C(=O)c2ccccc2C1=O` (configuration not stated) belongs 13% (inactive); to `C[C@@H](NC(=O)C1CCCC[C@H]1C(=O)O)c1ccccc1` (mixture of isomers), -1.8% (inactive); to `COC(=O)[C@H]1CCCC[C@H]1C(=O)N1CCc2ccccc2[C@H]1CN1C(=O)c2ccccc2C1=O`, -2.1% (inactive). As to `O=C(O)CC(=O)N1CCc2ccccc2C1CN1C(=O)c2ccccc2C1=O` (configuration not stated), the activation is 2.73% (inactive). Same read-out and setting: as for `O=C(O)CCCC(=O)N1CCc2ccccc2C1CN1C(=O)c2ccccc2C1=O` (configuration not stated), the figure is 3.41% (inactive); as for `O=C(O)[C@H]1CCCC[C@H]1C(=O)N1CCc2ccccc2[C@H]1CNS(=O)(=O)c1ccccc1`, 7.86% (inactive); as for `Cc1cc(C)c(S(=O)(=O)Nc2nc(NCCO)nc3ccccc23)c(C)c1`, 3.36% (inactive).

For the compound `O=C(O)c1ccccc1C(=O)N1CCc2ccccc2C1CN1C(=O)c2ccccc2C1=O` (configuration not stated), the activation is 4.54% (inactive). The same measure, in the same setting: to `NC(=O)[C@H]1CCCC[C@H]1C(=O)N1CCc2ccccc2[C@H]1CN1C(=O)c2ccccc2C1=O` belongs 4.54% (inactive); to `O=C(O)C1CCCCC1C(=O)NCC1c2ccccc2CCN1C(=O)Cc1ccccc1` (configuration not stated), 0.036% (inactive). Still for that read-out and setting: to `O=C(NC[C@@H]1c2ccccc2CCN1C(=O)[C@@H]1CCCC[C@@H]1C(=O)O)c1ccc(CN2CCOCC2)cc1` belongs 2.86% (inactive); to `O=C(O)C1CCCCC1C(=O)N1CCCCC1CN1C(=O)c2ccccc2C1=O` (configuration not stated), -1.78% (inactive).

In the case of `O=C(O)[C@H]1CCCC[C@H]1C(=O)N1CCc2ccccc2C1CCN1C(=O)c2ccccc2C1=O` (some centres not stated), the activation was 0.812% (inactive) and -0.193% (inactive). Still for that read-out and setting: to `O=C(O)C1CCCCC1C(=O)Nc1ccccc1CN1C(=O)c2ccccc2C1=O` (configuration not stated) belongs -2.72% (inactive); to `COC(=O)C1CCCCC1C(=O)N1CCc2ccccc2C1CN1C(=O)c2ccccc2C1=O` (configuration not stated), 1.27% (inactive).

In the case of `O=C(NCCO)c1ccccc1C(=O)NC[C@@H]1c2ccccc2CCN1C(=O)C1CCCCC1C(=O)O` (some centres not stated), the activation is 4.09% (inactive). As for `O=C1c2ccccc2C(=O)N1C[C@@H]1c2ccccc2CCN1C(=O)OCc1ccccc1`, the activation is 1.45% (inactive). The same measure, in the same setting: to `O=C(O)[C@H]1CCCC[C@H]1C(=O)N1CCc2ccccc2[C@H]1CNS(=O)(=O)c1ccc([N+](=O)[O-])cc1` belongs 6.37% (inactive); to `C=CC(=O)NC[C@@H]1c2ccccc2CCN1C(=O)[C@@H]1CCCC[C@@H]1C(=O)O`, 6.96% (inactive); to `Cc1cc(C)c(S(=O)(=O)Nc2nc(N(C)C)nc3ccccc23)c(C)c1`, 2.02% (inactive). On the same count and under the same terms, as for `O=C(O)C1CCCCC1C(=O)N1CCc2ccccc2C1CN1C(=O)[C@H]2CCCC[C@H]2C1=O` (some centres not stated), the figure is 4.38% (inactive); as for `Cc1ccc(S(=O)(=O)NC[C@@H]2c3ccccc3CCN2C(=O)[C@@H]2CCCC[C@@H]2C(=O)O)c(C)c1`, 4.66% (inactive). Still for that read-out and setting: as for `COC(=O)[C@@H]1CCCC[C@@H]1C(=O)N1CCc2ccccc2[C@@H]1CN1C(=O)c2ccccc2C1=O`, the figure is -2.15% (inactive); as for `O=C(O)C1CCCCC1C(=O)N1CCc2ccccc2[C@H]1C(=O)NC12CC3CC(CC(C3)C1)C2` (some centres not stated), -2.47% (inactive); as for `O=C(O)c1ccccc1C(=O)NC[C@@H]1c2ccccc2CCN1C(=O)[C@@H]1CCCC[C@@H]1C(=O)O`, 0.179% (inactive).

`O=C(NCCc1ccccc1)c1ccccc1C(=O)NC[C@@H]1c2ccccc2CCN1C(=O)C1CCCCC1C(=O)O` (some centres not stated): the activation was 5.09% (inactive).

As to `O=C1c2ccccc2C(=O)N1C[C@@H]1c2ccccc2CCN1C(=O)C1CCCCC1`, the activation was 0.733% (inactive). The same measure, in the same setting: as for `O=S(=O)(Nc1nc(NCC2CCCCC2)nc2ccccc12)c1ccccc1`, the figure is 3.97% (inactive). As to `O=C(O)[C@H]1CCCC[C@H]1C(=O)N1CCC2=C(CCCC2)C1CN1C(=O)c2ccccc2C1=O` (some centres not stated), the activation is 11% (inactive) and -0.217% (inactive). Same read-out and setting: to `COC(=O)[C@@H]1CCCC[C@@H]1C(=O)N1CCc2ccccc2[C@H]1CN1C(=O)c2ccccc2C1=O` belongs -2.72% (inactive). Same read-out and setting: to `O=C(O)[C@H]1CCCC[C@H]1C(=O)NC(CN1C(=O)c2ccccc2C1=O)c1ccccc1` (some centres not stated) belongs -1.98% (inactive); to `O=C(O)[C@H]1CCCC[C@H]1C(=O)N1CCc2ccccc2[C@H]1CNc1nc(Cl)nc2ccccc12`, 5.4% (inactive); to `O=C(O)CCC(=O)N1CCc2ccccc2C1CN1C(=O)c2ccccc2C1=O` (configuration not stated), 1.36% (inactive). The same measure, in the same setting: to `COC(=O)CNc1nc(NS(=O)(=O)c2c(C)cc(C)cc2C)c2ccccc2n1` belongs 3.66% (inactive); to `O=C(Cc1ccccc1)NC[C@@H]1c2ccccc2CCN1C(=O)[C@@H]1CCCC[C@@H]1C(=O)O`, 6.26% (inactive); to `O=C(O)C1CCCCC1C(=O)N1CCc2ccccc2C1CN1C(=O)Cc2ccccc2C1=O` (configuration not stated), 8.47% (inactive). With `COc1ccccc1CCNC(=O)[C@@H]1c2ccccc2CCN1C(=O)C1CCCCC1C(=O)O` (some centres not stated), the activation was -2.36% (inactive) and -1.69% (inactive).

Consider `CCOC(=O)Cc1nc(NS(=O)(=O)c2c(C)cc(C)cc2C)c2ccccc2n1`, for which the activation is 8.62% (inactive). Still for that read-out and setting: as for `O=C(O)C1CCCCC1C(=O)N1CCc2ccccc2C1CN1C(=O)c2ccccc2S1(=O)=O` (configuration not stated), the figure is 13.7% (inactive).

In the case of `Cc1ccc(S(=O)(=O)NC(=O)[C@@H]2c3ccccc3CCN2C(=O)[C@@H]2CCCC[C@@H]2C(=O)O)cc1`, the activation is 6.05% (inactive) and 8.58% (inactive). On the same count and under the same terms, as for `CC(C)CNc1nc(NS(=O)(=O)c2ccccc2)c2ccccc2n1`, the figure is 7.06% (inactive). The same measure, in the same setting: as for `O=C(O)[C@H]1CCCC[C@H]1C(=O)N1CCc2ccccc2C1` (racemic), the figure is -0.662% (inactive); as for `Cc1ccc(S(=O)(=O)NNc2nc(NCC(N)=O)nc3ccccc23)cc1`, 3% (inactive); as for `O=C1c2ccccc2C(=O)N1CC1=NCCc2ccccc21`, -0.067% (inactive). On the same count and under the same terms, as for `CCOC(=O)C(C(=O)OCC)c1cc(CNS(=O)(=O)c2ccc(C)cc2C)c2ccccc2n1`, the figure is 1.4% (inactive); as for `O=C(O)C1CCCCC1C(=O)N1CCc2ccccc2C1c1ccccc1` (configuration not stated), -2.53% (inactive). For the compound `O=C1c2ccccc2C(=O)N1C[C@H]1NCCc2ccccc21`, the activation is -2.67% (inactive).

For `CCOC(=O)C(C(=O)OCC)c1nc(NS(=O)(=O)c2c(C)cc(C)cc2C)c2ccccc2n1`, the activation was 1.28% (inactive). The same measure, in the same setting: to `Cc1cc(C)c(S(=O)(=O)Nc2cc(C(C(=O)OCc3ccccc3)C(=O)OCc3ccccc3)c(O)c3ccccc23)c(C)c1` belongs 5.34% (inactive).
